# Results: patent US7838513B2, “Anti-cancer therapy comprising an H2-blocker, at least one antiinflammatory agent and a cytotoxic agent” (Tiltan Pharma Ltd., priority 2006, dated 2010)
# “Also recorded” adds a separate entry of the source.
# Key:
# [1] = test system: mouse mammary carcinoma (EMT6/CTX); assay: Suppression of subcutaneous EMT6/CTX tumor growth in mice (tumor size); type: in vivo, mice of the CB6F1 strain; settings: 28 days from tumor cell inoculation; i.p.; levamisole 12 mg/Kg, cimetidine 20 mg/Kg; vs control
# Protocol: In the following exemplary embodiments of the present invention, different pharmaceutical compositions of the invention were tested in vivo for the purpose of suppression of tumor growth in mice. The control group received a vehicle containing only non-active ingredients which was compared to groups which received pharmaceutical compositions comprising different active ingredients as described in detail below. 3.5×10^5 cells of mouse mammary carcinoma (EMT6/CTX) were injected subcutaneously in to 7-8 week-old mice of the CB6F1 strain (a cross between Balbc and C57bl), in the center of their backs. The mice were then marked and divided into groups. Typically, each group consisted of 7 to 8 mice. The tumor size was measured twice a week and plotted in a graph. […] The width measurement was also used as an indication for tumor height, and the 0.52 is a normalizing factor. Mice were injected with a specified pharmaceutical composition, 6 days a week. Injection volume was 0.05 mL per 10 g body weight (25 g mice received 0.125 mL). All injections were performed intraperitoneally. The week was divided into two treatment types, cytotoxic treatment and non-cytotoxic treatment days according to the corresponding composition. […] 98% of final solution volume was measured and 2% solutol (liquid) was added. […] 98% of final solution volume was measured and 2% solutol (liquid) was added. […]
# tumor growth [2] = settings: Example 4 of U.S. Patent Application 20030158118; cited from earlier work
# tumor growth [3] = settings: Experiments 3 and 4 (FIGS. 3 and 4) in WO03/061566; cited from earlier work
Compound,"Effect on tumor growth (tumor size), Example 2, FIG. 2 [1]",Inhibition of tumor growth by Cimetidine by itself (tumor growth [2]),Effect of cyclophosphamide alone on tumor growth (tumor growth [3])
CN/C(=N/CCSCc1nc[nH]c1C)NC#N [cimetidine],"neither levamisole (Group 2), nor cimetidine (Group 3), nor their combination (Group 4) had any significant effect on tumor growth; also recorded: did not result in any significant effect on tumor growth; also recorded: neither the H2-blocker (cimetidine) alone, nor levamisole alone demonstrated any significant anti-cancer activity",did not inhibit tumor growth to any significant amount,
O=P1(N(CCCl)CCCl)NCCCO1 (stereo not shown) [cyclophosphamide],,,very moderate effect
c1ccc([C@H]2CN3CCSC3=N2)cc1 [levamisole],"neither levamisole (Group 2), nor cimetidine (Group 3), nor their combination (Group 4) had any significant effect on tumor growth; also recorded: neither the H2-blocker (cimetidine) alone, nor levamisole alone demonstrated any significant anti-cancer activity",,
